Experimental findings from article PMC12040169 (PLOS Biology, 2025) are described below.

The nature of one data set: in vitro. The conditions noted are these: human, hela cells.
Turning to `O=C(O)c1cc(NC(=O)c2ccc3c(c2)C(=O)N(Cc2ccco2)C3=O)cc(C(=O)O)c1` [CBK267374], the viability (commonly a read-out of living cells in per cent, often relative to untreated cells) at 28.5 h, 10 µM was 101%.

The same data set, now with this note: human, hela cells, % viability.
For `O=C(O)CCC(C(=O)O)N1C(=O)c2cc(Cl)c(Cl)cc2C1=O` (stereo not shown) [CBK264156], the viability at 28.5 h, 10 µM is 113%.

In the case of `Cn1nnnc1SCC(=O)Nc1ccc(Cl)c(Cl)c1` [CBK058218], the viability at 28.5 h, 10 µM was determined as 108%.

As to `CCc1ccc(C(=O)c2ccccc2C(=O)O)cc1` [CBK010776], the viability at 28.5 h, 10 µM was determined as 93.7%.

`O=S(=O)(c1cccs1)N1CCc2ccccc2C1` [CBK044531]: the viability at 28.5 h, 10 µM was 113%.

On to `C(=C\c1nccnc1OC(c1ccccc1)c1ccccc1)/c1ccccc1` [CBK106878], for which the viability at 28.5 h, 10 µM was determined as 99.1%.

Regarding `CCn1c2ccccc2c2cc(Nc3cc(-c4ccc(OC(F)(F)F)cc4)ncn3)ccc21` [CBK090842], the viability at 28.5 h, 10 µM was 87.3%.

For the compound `Nc1ncc(-c2ccc(C(=O)O)cc2)nc1-c1ccc(C(=O)N2CCOCC2)cc1` [CBK084518], the viability at 28.5 h, 10 µM came out at 90.8%.

As to `CS(=O)(=O)N1CCc2cc(-c3csc(C4CC4)n3)ccc21` [CBK306347], the viability at 28.5 h, 10 µM was 70.5%.

`NC(=O)CSc1nnc(-c2cccnc2)n1Cc1ccccc1` [CBK268672]: the viability at 28.5 h, 10 µM came to 99.2%.

For the compound `Cc1cc(COC(=O)c2nn(-c3ccc(F)cc3)c3c2CCCC3)on1` [CBK295305], the viability at 28.5 h, 10 µM came out at 105%.

With `CC(NC(=O)c1ccccc1Br)c1nnc(SCc2ccc([N+](=O)[O-])cc2)n1C` (stereo not shown) [CBK267810], the viability at 28.5 h, 10 µM was 103%.

On to `O=C(c1ccc2c(c1)CCO2)N1CCC(S(=O)(=O)c2ccc(-c3ccccc3)cc2)CC1` [CBK131957], for which the viability at 28.5 h, 10 µM is 109%.

On to `CCOC(=O)CN1CCN(c2nccnc2OCCN2CCOCC2)CC1` [CBK082897], for which the viability at 28.5 h, 10 µM is 93.9%.

Regarding `O=C(CSc1nnc2ccc(-c3ccccc3)nn12)Nc1ccc(F)cc1` [CBK287676], the viability at 28.5 h, 10 µM was 91.5%.

Turning to `COc1ccc(C)c2sc(NC(=O)c3sc(C)nc3C)nc12` [CBK287401], the viability at 28.5 h, 10 µM amounted to 74%.

For `O=C(N[C@H]1CO[C@H]2[C@@H]1OC[C@@H]2Nc1nccc(-c2cccc(F)c2)n1)C1CC1` [CBK289535], the viability at 28.5 h, 10 µM is 99.2%.

In the case of `CC(C)C(CCC(=O)Nc1ccc([N+](=O)[O-])cc1O)C(=O)O` (stereo not shown) [CBK268464], the viability at 28.5 h, 10 µM was 102%.

As for `Clc1ccccc1-c1nccnc1NCCc1c[nH]c2ccccc12` [CBK037337], the viability at 28.5 h, 10 µM came out at 106%.

For the compound `O=C(O)c1cc(Cl)c(OCc2cc(-c3ccccc3)no2)c(Cl)c1` [CBK295297], the viability at 28.5 h, 10 µM amounted to 86.7%.

In the case of `CC(Nc1n[nH]c(=O)[nH]c1=O)C(=O)N/N=C/c1ccccc1O` (stereo not shown) [CBK263526], the viability at 28.5 h, 10 µM was 91.7%.

Regarding `O=C1CC[C@@H](NCc2ccsc2)[C@H](c2cc(F)cc(F)c2)N1` [CBK282910], the viability at 28.5 h, 10 µM was found to be 102%.

With `O=C(CCCOc1ccccc1)Nc1ccc(N2CCNCC2)nc1` [CBK028270T], the viability at 28.5 h, 10 µM amounted to 98.2%.

`O=C(NC(Sc1ncccn1)C(=O)c1ccccc1)c1ccccc1` (stereo not shown) [CBK025806]: the viability at 28.5 h, 10 µM stood at 95.5%.

Turning to `CCNS(=O)(=O)c1ccc2c(c1)N(Cc1cccnc1C)CC2` [CBK306020], the viability at 28.5 h, 10 µM is 92.1%.

Turning to `O=C(O)c1cccc(NS(=O)(=O)c2ccc(CNC(=O)c3ccc(Cl)cc3)s2)c1` [CBK155085], the viability at 28.5 h, 10 µM turned out to be 104%.

Take `CC(=O)Nc1ccc(S(=O)(=O)N2CC[C@H](c3nc4ccccc4o3)C2)cc1` [CBK289373]: the viability at 28.5 h, 10 µM is 103%.

In the case of `O=C(O)Cn1nc(-c2ccccc2)c2ccccc2c1=O` [CBK287249], the viability at 28.5 h, 10 µM worked out at 88%.

For the compound `Cc1nc2c(c(N(C)C)n1)CCN(C(=O)C(C)n1cc(Cl)cn1)C2` (stereo not shown) [CBK307293], the viability at 28.5 h, 10 µM was 110%.

In the case of `O=C(O)c1cccc2c1C(=O)N(Cc1cccs1)C2` [CBK291246], the viability at 28.5 h, 10 µM came out at 95.3%.

With `CCCn1ncc(C(=O)N2CCC(Oc3ccccc3F)CC2)c1C` [CBK282169], the viability at 28.5 h, 10 µM came out at 115%.

For `COc1cccc(CNCC(c2ccnn2C)C(C)C)n1` (stereo not shown) [CBK304858], the viability at 28.5 h, 10 µM worked out at 105%.

Consider `Cc1nn(CC(=O)NCC2CC2)c(=O)c2cc3sccc3n12` [CBK284025], for which the viability at 28.5 h, 10 µM stood at 94.5%.

With `O=C(CSc1ccc2ccccc2n1)Nc1ccnc2ccccc12` [CBK176848], the viability at 28.5 h, 10 µM is 78.1%.

For `O=C(O)CCC(=O)Nc1ccc2c(c1)Cc1ccccc1-2` [CBK286611], the viability at 28.5 h, 10 µM amounted to 94.9%.

With `CC(Oc1ccc(-c2ccccc2)cc1)C(=O)Nc1ccc(S(N)(=O)=O)cc1` (stereo not shown) [CBK267979], the viability at 28.5 h, 10 µM was found to be 87.2%.

Consider `CS(=O)(=O)Nc1ncc(-c2ccco2)cc1C(=O)NCc1nc2ccccc2[nH]1` [CBK076468], for which the viability at 28.5 h, 10 µM worked out at 103%.

Consider `CCN(CC)CCNC(=O)c1ccc(Nc2cncc(-c3ccc(O)cc3)n2)c(OC)c1` [CBK122659], for which the viability at 28.5 h, 10 µM turned out to be 82.2%.

As for `O=C1/C(=N\O)c2ccccc2N1Cc1ccccc1` [CBK288484], the viability at 28.5 h, 10 µM came out at 99.7%.

For `COC(=O)c1ccc(N2CCN(C)CC2)c(NC(=O)c2cc(Br)ccc2OC)c1` [CBK269221], the viability at 28.5 h, 10 µM was 92%.

Turning to `COCCNc1nc(-c2ccc3[nH]ccc3c2)ccc1C(=O)N1CCN(C)CC1` [CBK105956], the viability at 28.5 h, 10 µM was determined as 92.2%.

Turning to `CC(=O)N[C@H]1CC[C@]2(C)CCC([C@H](C)C(=O)NC3CC3)[C@H](O)[C@H]2[C@@H]1C` (stereo partly shown) [CBK289437], the viability at 28.5 h, 10 µM worked out at 93.9%.

With `COc1ccccc1-c1c(O)n[nH]c1CCC1CCCC1` [CBK075128], the viability at 28.5 h, 10 µM is 97.5%.

As for `Cc1cn([C@H]2C[C@@H](O)[C@@H](CN)O2)c(=O)[nH]c1=O` [CBK201315], the viability at 28.5 h, 10 µM turned out to be 96.2%.

In the case of `O=C(Nc1cc(Oc2cccnc2)cc([N+](=O)[O-])c1)c1cc2nc(-c3ccccc3)cc(-c3ccccc3)n2n1` [CBK262554], the viability at 28.5 h, 10 µM was found to be 87.3%.

For `Cc1cc(=O)n2c3c(cc(S(=O)(=O)NC4CC4)cc13)CC2` [CBK218959], the viability at 28.5 h, 10 µM was 95.9%.

As for `CCCCOc1nccnc1-c1cnc(OC)nc1OC` [CBK106756], the viability at 28.5 h, 10 µM was determined as 98.8%.

Regarding `O=c1[nH]nc(-c2cccs2)n1-c1ccncc1` [CBK283868], the viability at 28.5 h, 10 µM came out at 93.2%.

Turning to `CCCC/C=C/c1nccnc1NCc1cccs1` [CBK038090], the viability at 28.5 h, 10 µM came out at 101%.

For the compound `O=C(/C=C/c1cccc2ccccc12)N1CCCCCC1` [CBK264092], the viability at 28.5 h, 10 µM amounted to 111%.

Turning to `O=C1N=C2C=CC=CN2C(=O)C1Cc1ccccc1` (stereo not shown) [CBK287874], the viability at 28.5 h, 10 µM is 110%.

`N#Cc1c(Nc2cccc(C(F)(F)F)c2)sc(C(=O)c2ccc3c(c2)OCO3)c1N` [CBK074399]: the viability at 28.5 h, 10 µM came out at 89.2%.

Consider `CNC(=O)CC1CCN(c2cc(C#N)ccc2C(F)(F)F)CC1` [CBK306450], for which the viability at 28.5 h, 10 µM came to 112%.

In the case of `O=C(/C=C/c1ccccc1)NC(NCc1cccnc1)C(Cl)(Cl)Cl` (stereo not shown) [CBK261804], the viability at 28.5 h, 10 µM is 95.3%.

On to `COc1cccc(CN2CCN(C(=O)c3ccco3)CC2)c1OC` [CBK074380], for which the viability at 28.5 h, 10 µM amounted to 87.4%.

Regarding `CC(C)(C)c1n[nH]c(C2CN(C(=O)CCCn3cccn3)CCO2)n1` (stereo not shown) [CBK305198], the viability at 28.5 h, 10 µM worked out at 88.1%.

With `Cc1nn(CC(=O)N2CCCC(C)C2)c(=O)c2cc3occc3n12` (stereo not shown) [CBK283623], the viability at 28.5 h, 10 µM is 91.6%.

In the case of `O=C(Nc1cccc(N2CCNCC2)c1)C1CCCO1` (stereo not shown) [CBK004768T], the viability at 28.5 h, 10 µM is 93.4%.

With `c1ccc(Oc2nc3ccccc3n3cnnc23)cc1` [CBK287945], the viability at 28.5 h, 10 µM is 91.9%.

Turning to `CCCCNC(=S)N[C@H]1CC[C@@]2(C3=CC=CC4C=CC=CC34)CCN(C)[C@H]2C1` (stereo partly shown) [CBK003610C], the viability at 28.5 h, 10 µM turned out to be 101%.

As for `Cc1cc(C)cc(NC(=O)CC2Sc3ccccc3NC2=O)c1` (stereo not shown) [CBK266384], the viability at 28.5 h, 10 µM came to 94%.

For the compound `COc1ccccc1NC(=O)C1CCN(C(=O)OC(C)(C)C)CC1` [CBK296746], the viability at 28.5 h, 10 µM is 90.5%.

In the case of `Cc1ccn2c(-c3csc(Nc4ccc(C(=O)O)cc4)n3)c(C)nc2c1` [CBK263283B], the viability at 28.5 h, 10 µM was found to be 97.5%.

As for `CC(C)(C)OC(=O)N1CCN(CCC(=O)O)CC1` [CBK287143], the viability at 28.5 h, 10 µM was 101%.

For `CCCc1ccc(S(=O)(=O)Nc2ccccc2C(=O)O)cc1` [CBK042366], the viability at 28.5 h, 10 µM is 72.4%.

Consider `CCNS(=O)(=O)c1ccc2c(c1)N(Cc1nc(C)c(C)o1)CC2` [CBK305189], for which the viability at 28.5 h, 10 µM came to 51.5%.

On to `CCn1c(C)nnc1CN(CC1CCCO1)C1CCCC1` (stereo not shown) [CBK304181], for which the viability at 28.5 h, 10 µM came to 96.4%.

For the compound `CCn1cc(C(=O)N2CCC(C(=O)O)CC2)c(=O)c2cc3c(cc21)OCO3` [CBK286713], the viability at 28.5 h, 10 µM was 111%.

In the case of `N#Cc1ccc(-c2cccs2)nc1SCC(=O)Nc1ccc([N+](=O)[O-])cc1` [CBK066850], the viability at 28.5 h, 10 µM worked out at 87.5%.

On to `O=C(CSc1ncn(-c2ccccc2)n1)Nc1ccc2[nH]c(=O)[nH]c2c1` [CBK268212], for which the viability at 28.5 h, 10 µM came out at 106%.

Turning to `O=C(O)C1CCN(c2cncc(-c3ccc(F)cc3F)n2)CC1` [CBK065899], the viability at 28.5 h, 10 µM came out at 95.2%.

Consider `O=C(COc1ccc([N+](=O)[O-])cc1)Nc1cccc2nsnc12` [CBK263808], for which the viability at 28.5 h, 10 µM was 94.8%.

Regarding `O=S(=O)(NC1c2cccc3cccc(c23)C1Sc1ccccn1)c1ccc(Cl)cc1` (stereo not shown) [CBK264073], the viability at 28.5 h, 10 µM turned out to be 95.1%.

On to `CC1CCCCN1S(=O)(=O)c1cccc2nonc12` (stereo not shown) [CBK261723], for which the viability at 28.5 h, 10 µM is 94.5%.

`COc1cc(C2NC(=O)NC(O)(C(F)(F)F)C2C(=O)c2ccccc2)ccc1OCc1ccccc1` (stereo not shown) [CBK264957]: the viability at 28.5 h, 10 µM amounted to 114%.

Regarding `O=[N+]([O-])c1cccc(-c2noc(COc3ccc(Br)cc3Cl)n2)c1` [CBK264452], the viability at 28.5 h, 10 µM was 101%.

In the case of `CC(C)CN1CCOC(CNC(=O)c2cc(O)nc3ccccc23)C1` (stereo not shown) [CBK297931], the viability at 28.5 h, 10 µM worked out at 80.6%.

Regarding `CC(=O)NC1(c2ccc(F)cc2)CCN(Cc2cccnc2)CC1` [CBK283610], the viability at 28.5 h, 10 µM was 103%.

Still in this data set, the particulars now being: human, hela cells, % viability, bulk resorufin, single well.
Consider `O=C(Nc1ccc2c(c1)OC(F)(F)O2)c1nn(Cc2ccc(-c3csnn3)cc2)c2ccccc12` [CBK047877], for which the viability at 28.5 h, 10 µM is 86.8%.
